Results on 27 compounds are retold here after patent US7846959B2, “Raf modulators and methods of use” (Exelixis, Inc., priority 2004, dated 2010).

Experiment [1] addresses c-Raf (Homo sapiens, UniProt P04049). Kind of experiment: Luciferase-coupled chemiluminescence kinase assay (ATP consumption), c-Raf. It counts as biochemical. The following applies: read-out: cRaf-1 (inhibition indicated as IC50). In a few lines:
(§1)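 ATP depletion, limited to 25-60%, read by luciferase-luciferin chemiluminescence gives IC50 values. Before the 3 hr ambient-temperature kinase reaction with ATP, compound and […] enzyme were preincubated 30 minutes at room temperature in Tris pH 7.5 buffer with MgCl2, TX-100 and DTT.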

Experiment [2] has as its target B-Raf (Homo sapiens, UniProt P15056). Kind of experiment: Luciferase-coupled chemiluminescence kinase assay (ATP consumption), B-Raf. The following applies: read-out: bRaf (inhibition indicated as IC50). It counts as biochemical. In a few lines: as §1

c-Raf, sequence (P04049 whole entry): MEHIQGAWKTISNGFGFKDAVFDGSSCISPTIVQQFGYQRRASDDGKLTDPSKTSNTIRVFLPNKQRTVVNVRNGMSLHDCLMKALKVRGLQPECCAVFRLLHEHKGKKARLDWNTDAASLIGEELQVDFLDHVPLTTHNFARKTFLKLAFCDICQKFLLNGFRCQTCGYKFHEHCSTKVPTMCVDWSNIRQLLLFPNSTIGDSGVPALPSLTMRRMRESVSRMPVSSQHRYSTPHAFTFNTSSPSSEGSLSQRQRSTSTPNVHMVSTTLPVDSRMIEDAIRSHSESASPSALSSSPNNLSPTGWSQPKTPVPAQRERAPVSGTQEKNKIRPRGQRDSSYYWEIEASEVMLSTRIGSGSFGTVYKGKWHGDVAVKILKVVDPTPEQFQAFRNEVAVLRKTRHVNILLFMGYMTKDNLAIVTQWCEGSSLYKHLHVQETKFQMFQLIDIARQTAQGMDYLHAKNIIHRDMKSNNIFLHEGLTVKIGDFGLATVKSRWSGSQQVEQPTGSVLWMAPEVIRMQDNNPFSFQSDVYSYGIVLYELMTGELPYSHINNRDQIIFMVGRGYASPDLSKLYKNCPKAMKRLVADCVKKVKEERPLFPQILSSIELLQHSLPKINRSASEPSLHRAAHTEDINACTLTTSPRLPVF
B-Raf, sequence (P15056 whole entry): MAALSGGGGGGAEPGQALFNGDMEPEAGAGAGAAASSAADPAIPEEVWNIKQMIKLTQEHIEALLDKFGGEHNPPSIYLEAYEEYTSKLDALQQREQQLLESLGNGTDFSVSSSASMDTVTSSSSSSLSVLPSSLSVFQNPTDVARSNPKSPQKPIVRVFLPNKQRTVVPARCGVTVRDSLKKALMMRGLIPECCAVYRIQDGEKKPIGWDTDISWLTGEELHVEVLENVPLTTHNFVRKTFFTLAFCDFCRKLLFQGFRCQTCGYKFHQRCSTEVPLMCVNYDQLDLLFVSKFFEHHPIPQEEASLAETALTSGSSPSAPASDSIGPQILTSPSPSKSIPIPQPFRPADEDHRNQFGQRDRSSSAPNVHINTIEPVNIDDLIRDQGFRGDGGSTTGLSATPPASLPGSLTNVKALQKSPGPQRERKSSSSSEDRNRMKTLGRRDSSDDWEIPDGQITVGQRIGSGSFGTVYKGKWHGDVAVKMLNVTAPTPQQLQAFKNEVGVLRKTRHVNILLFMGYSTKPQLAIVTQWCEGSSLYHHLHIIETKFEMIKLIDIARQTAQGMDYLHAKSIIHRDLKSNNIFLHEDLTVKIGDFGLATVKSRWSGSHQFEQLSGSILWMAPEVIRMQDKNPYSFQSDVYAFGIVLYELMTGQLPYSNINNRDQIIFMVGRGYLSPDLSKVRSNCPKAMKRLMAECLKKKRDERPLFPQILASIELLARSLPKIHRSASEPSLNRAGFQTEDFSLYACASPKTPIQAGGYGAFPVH

The IC50 is the midpoint of a concentration-inhibition curve. With `COC(=O)Nc1nc2ccc(C3(O)c4c(F)ccc(F)c4C(=O)N3c3cccc(Cl)c3F)cc2[nH]1` (stereo not drawn) [Entry 339, methyl {6-[2-(3-chloro-2-fluorophenyl)-4,7-difluoro-1-hydroxy-3-oxo-2,3-dihydro-1H-isoindol-1-yl]-1H-benzimidazol-2-yl}carbamate], the concentration for half-maximal inhibition (IC50) in experiment [1] and in experiment [2] was less than 100 nM in each case.
For `CCOC(=O)Nc1nc2ccc(C3(O)c4ccccc4C(=O)N3c3cccc(Cl)c3F)cc2[nH]1` (stereo not drawn) [Entry 340, ethyl {6-[2-(3-chloro-2-fluorophenyl)-1-hydroxy-3-oxo-2,3-dihydro-1H-isoindol-1-yl]-1H-benzimidazol-2-yl}carbamate], the IC50 in experiment [1] and in experiment [2] was less than 100 nM each time.
As for `O=C(Nc1nc2ccc(C3(O)c4ccccc4C(=O)N3c3cccc(Cl)c3F)cc2[nH]1)OCCF` (stereo not drawn) [Entry 341, 2-fluoroethyl {6-[2-(3-chloro-2-fluorophenyl)-1-hydroxy-3-oxo-2,3-dihydro-1H-isoindol-1-yl]-1H-benzimidazol-2-yl}carbamate], the IC50 in experiment [1] and in experiment [2] was less than 100 nM each time.
For the compound `COC(=O)Nc1nc2cc(C3(O)c4ccccc4C(=O)N3c3ccccc3Oc3ccccc3)ccc2[nH]1` (stereo not drawn) [Entry 342, methyl (5-{1-hydroxy-3-oxo-2-[2-(phenyloxy)phenyl]-2,3-dihydro-1H-isoindol-1-yl}-1H-benzimidazol-2-yl)carbamate], the IC50 in experiment [1] and in experiment [2] was 100 to 1000 nM in each case.
Consider `CCN(CC)C(=O)CCCC(=O)Nc1nc2cc(C3(O)c4ccccc4C(=O)N3c3cccc(Cl)c3F)ccc2[nH]1` (stereo not drawn) [Entry 343, N′-{5-[2-(3-chloro-2-fluorophenyl)-1-hydroxy-3-oxo-2,3-dihydro-1H-isoindol-1-yl]-1H-benzimidazol-2-yl}-N,N-diethylpentanediamide], for which the IC50 in experiment [1] and in experiment [2] was less than 100 nM throughout.
On to `O=C(Nc1nc2ccc(C3(O)c4ccccc4C(=O)N3c3cccc(Cl)c3F)cc2[nH]1)OCC1CCC1` (stereo not drawn) [Entry 344, cyclobutylmethyl {6-[2-(3-chloro-2-fluorophenyl)-1-hydroxy-3-oxo-2,3-dihydro-1H-isoindol-1-yl]-1H-benzimidazol-2-yl}carbamate], for which the half-maximal inhibitory concentration (IC50) in experiment [1] and in experiment [2] was less than 100 nM in each case.
For the compound `O=C(Nc1nc2ccc(C3(O)c4ccccc4C(=O)N3c3cccc(Cl)c3F)cc2[nH]1)OCC(F)(F)F` (stereo not drawn) [Entry 345, 2,2,2-trifluoroethyl {6-[2-(3-chloro-2-fluorophenyl)-1-hydroxy-3-oxo-2,3-dihydro-1H-isoindol-1-yl]-1H-benzimidazol-2-yl}carbamate], the IC50 in experiment [1] and in experiment [2] was less than 100 nM each time.
In the case of `COC(=O)Nc1nc2cc(C3(O)c4ccccc4C(=O)N3c3cccc(C(C)(C)C)c3)ccc2[nH]1` (stereo not drawn) [Entry 346, methyl (5-{2-[3-(1,1-dimethylethyl)phenyl]-1-hydroxy-3-oxo-2,3-dihydro-1H-isoindol-1-yl}-1H-benzimidazol-2-yl)carbamate], the concentration for half-maximal inhibition (IC50) in experiment [1] and in experiment [2] was less than 100 nM each time.
Consider `COC(=O)Nc1nc2ccc(C3(O)c4c(F)cccc4C(=O)N3c3cccc(Cl)c3F)cc2[nH]1` (stereo not drawn) [Entry 347, methyl {6-[2-(3-chloro-2-fluorophenyl)-7-fluoro-1-hydroxy-3-oxo-2,3-dihydro-1H-isoindol-1-yl]-1H-benzimidazol-2-yl}carbamate], for which the IC50 in experiment [1] and in experiment [2] was less than 100 nM each time.
On to `O=C1c2ccccc2C(O)(c2ccc3[nH]c(Nc4ccccc4)nc3c2)N1c1cccc(Cl)c1F` (stereo not drawn) [Entry 348, 2-(3-chloro-2-fluorophenyl)-3-hydroxy-3-[2-(phenylamino)-1H-benzimidazol-5-yl]-2,3-dihydro-1H-isoindol-1-one], for which the IC50 in experiment [1] and in experiment [2] was 1000 to 10000 nM in each case.
Turning to `COC(=O)Nc1nc2ccc(C3(O)c4c(Cl)ccc(Cl)c4C(=O)N3c3cccc(Cl)c3F)cc2[nH]1` (stereo not drawn) [Entry 349, methyl {6-[4,7-dichloro-2-(3-chloro-2-fluorophenyl)-1-hydroxy-3-oxo-2,3-dihydro-1H-isoindol-1-yl]-1H-benzimidazol-2-yl}carbamate], the IC50 in experiment [1] and in experiment [2] was 1000 to 10000 nM throughout.
Take `CCOC(=O)Nc1nc2cc(C(=O)c3ccccc3C(=O)OCc3ccccc3)ccc2o1` [Entry 350, phenylmethyl 2-[(2-{[(ethyloxy)carbonyl]amino}-1,3-benzoxazol-5-yl)carbonyl]benzoate]: the IC50 in experiment [1] and in experiment [2] was 1000 to 10000 nM in each case.
For `C#Cc1cc(Cl)cc(N2C(=O)c3ccccc3C2(O)c2ccc3[nH]c(NC(=O)OC)nc3c2)c1C` (stereo not drawn) [Entry 351, methyl {5-[2-(5-chloro-3-ethynyl-2-methylphenyl)-1-hydroxy-3-oxo-2,3-dihydro-1H-isoindol-1-yl]-1H-benzimidazol-2-yl}carbamate], the IC50 was 100 to 1000 nM in experiment [1] and less than 100 nM in experiment [2].
As to `C#Cc1cc(N2C(=O)c3ccccc3C2(O)c2ccc3[nH]c(NC(=O)OC)nc3c2)c(F)cc1F` (stereo not drawn) [Entry 352, methyl {5-[2-(5-ethynyl-2,4-difluorophenyl)-1-hydroxy-3-oxo-2,3-dihydro-1H-isoindol-1-yl]-1H-benzimidazol-2-yl}carbamate], the half-maximal inhibitory concentration (IC50) in experiment [1] and in experiment [2] was less than 100 nM throughout.
With `C#Cc1c(F)ccc(N2C(=O)c3ccccc3C2(O)c2ccc3[nH]c(NC(=O)OC)nc3c2)c1F` (stereo not drawn) [Entry 353, methyl {5-[2-(3-ethynyl-2,4-difluorophenyl)-1-hydroxy-3-oxo-2,3-dihydro-1H-isoindol-1-yl]-1H-benzimidazol-2-yl}carbamate], the IC50 in experiment [1] and in experiment [2] was less than 100 nM each time.
As to `O=C1c2ccccc2C(O)(c2ccc3[nH]c(Nc4ncccn4)nc3c2)N1c1cccc(Cl)c1F` (stereo not drawn) [Entry 354, 2-(3-chloro-2-fluorophenyl)-3-hydroxy-3-[2-(pyrimidin-2-ylamino)-1H-benzimidazol-5-yl]-2,3-dihydro-1H-isoindol-1-one], the IC50 in experiment [1] and in experiment [2] was less than 100 nM throughout.
For `C#Cc1cccc(N2C(=O)c3c(F)ccc(F)c3C2(O)c2ccc3[nH]c(NC(=O)OC)nc3c2)c1F` (stereo not drawn) [Entry 355, methyl {5-[2-(3-ethynyl-2-fluorophenyl)-4,7-difluoro-1-hydroxy-3-oxo-2,3-dihydro-1H-isoindol-1-yl]-1H-benzimidazol-2-yl}carbamate], the IC50 in experiment [1] and in experiment [2] was less than 100 nM throughout.
With `O=C1c2ccccc2C(O)(c2ccc3[nH]c(Nc4nccs4)nc3c2)N1c1cccc(Cl)c1F` (stereo not drawn) [Entry 356, 2-(3-chloro-2-fluorophenyl)-3-hydroxy-3-[2-(1,3-thiazol-2-ylamino)-1H-benzimidazol-5-yl]-2,3-dihydro-1H-isoindol-1-one], the IC50 in experiment [1] and in experiment [2] was less than 100 nM in each case.
In the case of `CCOC(=O)Nc1nc2cc(C3(O)c4ccccc4C(=O)N3c3cccc(Cl)c3F)ccc2o1` (stereo not drawn) [Entry 357, ethyl {5-[2-(3-chloro-2-fluorophenyl)-1-hydroxy-3-oxo-2,3-dihydro-1H-isoindol-1-yl]-1,3-benzoxazol-2-yl}carbamate], the IC50 in experiment [1] is 100 to 1000 nM; in experiment [2], less than 100 nM.
The like results for `COC(=O)Nc1nc2cc(C3(O)c4ccccc4C(=O)N3c3cc(Cl)cc(I)c3C)ccc2[nH]1` (stereo not drawn) [Entry 358, methyl {5-[2-(5-chloro-3-iodo-2-methylphenyl)-1-hydroxy-3-oxo-2,3-dihydro-1H-isoindol-1-yl]-1H-benzimidazol-2-yl}carbamate] were, in that order, 100 to 1000 nM and 100 to 1000 nM.
In the same order, the values of `CCc1cccc(N2C(=O)c3ccccc3C2(O)c2ccc3[nH]c(NC(=O)OC)nc3c2)c1F` (stereo not drawn) [Entry 359, methyl {5-[2-(3-ethyl-2-fluorophenyl)-1-hydroxy-3-oxo-2,3-dihydro-1H-isoindol-1-yl]-1H-benzimidazol-2-yl}carbamate] are less than 100 nM and less than 100 nM.
The like results for `C#Cc1ccc(C)c(N2C(=O)c3ccccc3C2(O)c2ccc3[nH]c(NC(=O)OC)nc3c2)c1` (stereo not drawn) [Entry 360, methyl {5-[2-(5-ethynyl-2-methylphenyl)-1-hydroxy-3-oxo-2,3-dihydro-1H-isoindol-1-yl]-1H-benzimidazol-2-yl}carbamate] were, in that order, less than 100 nM and less than 100 nM.
For `O=C1c2ccccc2C(O)(c2ccc3[nH]c(Nc4cnccn4)nc3c2)N1c1cccc(Cl)c1F` (stereo not drawn) [Entry 361, 2-(3-chloro-2-fluorophenyl)-3-hydroxy-3-[2-(pyrazin-2-ylamino)-1H-benzimidazol-5-yl]-2,3-dihydro-1H-isoindol-1-one], the IC50 in experiment [1] and in experiment [2] was less than 100 nM each time.
Turning to `COC(=O)Nc1nc2cc(C3(O)c4ccccc4C(=O)N3c3cccc(I)c3F)ccc2[nH]1` (stereo not drawn) [Entry 362, methyl {5-[2-(2-fluoro-3-iodophenyl)-1-hydroxy-3-oxo-2,3-dihydro-1H-isoindol-1-yl]-1H-benzimidazol-2-yl}carbamate], the IC50 in experiment [1] and in experiment [2] was less than 100 nM each time.
`C#Cc1ccc(F)c(N2C(=O)c3ccccc3C2(O)c2ccc3nc(NC(=O)OC)[nH]c3c2)c1` (stereo not drawn) [Entry 363, methyl {6-[2-(5-ethynyl-2-fluorophenyl)-1-hydroxy-3-oxo-2,3-dihydro-1H-isoindol-1-yl]-1H-benzimidazol-2-yl}carbamate]: the IC50 in experiment [1] and in experiment [2] was less than 100 nM each time.
For `C#Cc1cccc(N2C(=O)c3ccccc3C2(O)c2ccc3[nH]c(Nc4ncccn4)nc3c2)c1F` (stereo not drawn) [Entry 364, 2-(3-ethynyl-2-fluorophenyl)-3-hydroxy-3-[2-(pyrimidin-2-ylamino)-1H-benzimidazol-5-yl]-2,3-dihydro-1H-isoindol-1-one], the IC50 in experiment [1] and in experiment [2] was less than 100 nM in each case.
In the case of `COC(=O)Nc1nc2cc(C3(O)c4ccccc4C(=O)N3c3cc(C)ccc3C)ccc2[nH]1` (stereo not drawn) [Entry 365, methyl {5-[2-(2,5-dimethylphenyl)-1-hydroxy-3-oxo-2,3-dihydro-1H-isoindol-1-yl]-1H-benzimidazol-2-yl}carbamate], the IC50 in experiment [1] and in experiment [2] was less than 100 nM throughout.
